Experimental data published in ChEMBL document CHEMBL2417463, “Synthesis and identification of new flavonoids targeting liver X receptor β involved pathway as potential facilitators of Aβ clearance with reduced lipid accumulation” (J Med Chem, 2013).
Active and inactive are the calls of the source. The rule behind the calls is not given here.

Key:
Type in all cases: cell-based
[1] = target: T1, Oxysterols receptor LXR-beta (Mus musculus) (UniProt Q60644); test: Agonist activity at LXRbeta in mouse RAW264.7 cells assessed as induction of ABCA1 promoter activation at 1 uM after 24 hrs by Dual-Glo luciferase reporter gene assay relative to vehicle-treated control
T1 sequence (whole entry): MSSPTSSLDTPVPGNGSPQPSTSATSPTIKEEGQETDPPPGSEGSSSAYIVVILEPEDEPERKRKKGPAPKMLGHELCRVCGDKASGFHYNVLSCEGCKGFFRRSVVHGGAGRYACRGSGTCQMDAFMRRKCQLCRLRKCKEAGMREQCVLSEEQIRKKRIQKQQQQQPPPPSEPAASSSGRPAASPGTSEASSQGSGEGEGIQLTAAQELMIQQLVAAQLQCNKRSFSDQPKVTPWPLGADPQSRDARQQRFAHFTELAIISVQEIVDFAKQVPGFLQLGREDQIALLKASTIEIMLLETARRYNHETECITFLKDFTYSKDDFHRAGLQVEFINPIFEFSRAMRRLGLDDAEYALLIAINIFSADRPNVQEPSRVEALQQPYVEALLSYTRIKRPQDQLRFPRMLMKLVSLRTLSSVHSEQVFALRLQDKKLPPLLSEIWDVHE

HepG2 [2] = test: Induction of intracellular triglyceride accumulation in human HepG2 cells at 1 uM after 4 days relative to vehicle-treated control; conditions: hepg2, 96 h
HepG2 [3] = test: Induction of cytoplasmic lipid accumulation in human HepG2 cells at 1 uM after 4 days by oil red O staining-based light microscopic analysis; conditions: hepg2, 96 h
[4] = target: T1, Oxysterols receptor LXR-beta (Mus musculus); test: Agonist activity at LXRbeta in mouse BV2 cells assessed as degradation of intracellular soluble amyloid beta42 at 1 uM preincubated for 18 hrs followed by soluble amyloid beta42 addition measured after 24 hrs by ELISA relative to vehicle-treated control; conditions: BV-2
[5] = target: T2, Oxysterols receptor LXR-alpha (Homo sapiens) (UniProt Q13133); test: Agonist activity at human LXRalpha transfected in HEK293 cells at 1 uM after 24 hrs by luciferase reporter gene assay relative to vehicle-treated control
T2 sequence (whole entry): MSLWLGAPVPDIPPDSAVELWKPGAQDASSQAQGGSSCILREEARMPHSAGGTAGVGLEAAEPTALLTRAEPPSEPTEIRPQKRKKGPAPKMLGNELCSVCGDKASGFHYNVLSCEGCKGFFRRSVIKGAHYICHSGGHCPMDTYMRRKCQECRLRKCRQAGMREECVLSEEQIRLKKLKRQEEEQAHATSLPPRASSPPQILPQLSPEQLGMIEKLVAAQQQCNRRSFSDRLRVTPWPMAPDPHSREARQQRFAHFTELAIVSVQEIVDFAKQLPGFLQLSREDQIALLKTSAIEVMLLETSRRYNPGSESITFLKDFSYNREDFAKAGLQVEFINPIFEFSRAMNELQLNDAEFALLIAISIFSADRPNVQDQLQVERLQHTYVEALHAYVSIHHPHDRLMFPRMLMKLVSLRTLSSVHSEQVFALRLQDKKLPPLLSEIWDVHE

[6] = target: T1, Oxysterols receptor LXR-beta (Mus musculus); test: Agonist activity at LXRbeta in mouse RAW264.7 cells assessed as upregulation of ABCA1 protein expression after 18 to 48 hrs by Western blot analysis
HEK293 = test: Cytotoxicity against HEK293 cells assessed as inhibition of cell viability at 50 uM after 48 hrs by SRB assay relative to vehicle-treated control; conditions: human, hek293, 48 h
[7] = target: T1, Oxysterols receptor LXR-beta (Mus musculus); test: Agonist activity at LXRbeta in mouse BV2 cells assessed as degradation of intracellular soluble amyloid beta42 at 0.1 uM preincubated for 18 hrs followed by soluble amyloid beta42 addition measured after 24 hrs by ELISA relative to vehicle-treated control; conditions: BV-2
RAW264.7 = test: Cytotoxicity against mouse RAW264.7 cells assessed as inhibition of cell viability at 50 uM after 48 hrs by SRB assay relative to vehicle-treated control; conditions: raw264.7, 48 h
[8] = target: T1, Oxysterols receptor LXR-beta (Mus musculus); test: Agonist activity at LXRbeta in mouse RAW264.7 cells assessed as induction of ABCA1 promoter activation after 24 hrs by Dual-Glo luciferase reporter gene assay
[9] = target: T2, Oxysterols receptor LXR-alpha (Homo sapiens); test: Agonist activity at human LXRalpha transfected in HEK293 cells at 0.1 uM after 24 hrs by luciferase reporter gene assay relative to vehicle-treated control
[10] = target: T1, Oxysterols receptor LXR-beta (Mus musculus); test: Agonist activity at LXRbeta in mouse BV2 cells assessed as upregulation of apoE protein expression at 1 uM after 48 hrs by Western blot analysis relative to vehicle-treated control; conditions: BV-2
[11] = target: T1, Oxysterols receptor LXR-beta (Mus musculus); test: Agonist activity at LXRbeta in mouse BV2 cells assessed as upregulation of ABCA1 protein expression after 12 to 48 hrs by Western blot analysis; conditions: BV-2
HepG2 [12] = test: Induction of intracellular triglyceride accumulation in human HepG2 cells at 10 uM after 4 days relative to vehicle-treated control; conditions: hepg2, 96 h
[13] = target: T1, Oxysterols receptor LXR-beta (Mus musculus); test: Agonist activity at LXRbeta in mouse RAW264.7 cells assessed as upregulation of ABCA1 protein expression at 1 uM after 18 to 48 hrs by Western blot analysis
BV-2 = test: Cytotoxicity against mouse BV2 cells assessed as inhibition of cell viability at 50 uM after 48 hrs by SRB assay relative to vehicle-treated control; conditions: bv-2, 48 h
[14] = target: T1, Oxysterols receptor LXR-beta (Mus musculus); test: Agonist activity at LXRbeta in mouse BV2 cells assessed as degradation of intracellular amyloid beta42 preincubated for 18 hrs followed by soluble amyloid beta42 addition measured after 24 hrs by ELISA; conditions: BV-2
[15] = target: T1, Oxysterols receptor LXR-beta (Mus musculus); test: Agonist activity at LXRbeta in mouse BV2 cells assessed as upregulation of apoE protein expression at 10 uM after 48 hrs by Western blot analysis relative to vehicle-treated control; conditions: BV-2
[16] = target: T1, Oxysterols receptor LXR-beta (Mus musculus); test: Agonist activity at LXRbeta in mouse BV2 cells assessed as upregulation of ABCA1 protein expression at 1 uM after 12 to 48 hrs by Western blot analysis; conditions: BV-2
[17] = target: T3, Oxysterols receptor LXR-beta (Homo sapiens) (UniProt P55055); test: Agonist activity at human LXRbeta transfected in HEK293 cells at 0.1 uM after 24 hrs by luciferase reporter gene assay relative to vehicle-treated control
T3 sequence (whole entry): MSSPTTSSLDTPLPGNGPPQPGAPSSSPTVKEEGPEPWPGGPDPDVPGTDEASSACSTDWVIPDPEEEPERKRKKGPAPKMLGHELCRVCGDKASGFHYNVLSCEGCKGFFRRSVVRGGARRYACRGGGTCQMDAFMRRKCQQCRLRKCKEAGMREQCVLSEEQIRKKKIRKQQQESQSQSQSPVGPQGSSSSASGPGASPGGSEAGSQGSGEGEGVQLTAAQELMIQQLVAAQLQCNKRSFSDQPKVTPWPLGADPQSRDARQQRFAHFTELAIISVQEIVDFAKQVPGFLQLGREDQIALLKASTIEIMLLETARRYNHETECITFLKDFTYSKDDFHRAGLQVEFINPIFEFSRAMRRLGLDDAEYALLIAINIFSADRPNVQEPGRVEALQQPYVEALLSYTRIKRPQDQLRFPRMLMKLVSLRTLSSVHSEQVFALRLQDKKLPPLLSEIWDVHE

HepG2 [18] = test: Cytotoxicity against human HepG2 cells assessed as inhibition of cell viability at 50 uM after 48 hrs by SRB assay relative to vehicle-treated control; conditions: hepg2, 48 h, 50 µM
[19] = target: T3, Oxysterols receptor LXR-beta (Homo sapiens); test: Agonist activity at human LXRbeta transfected in HEK293 cells at 1 uM after 24 hrs by luciferase reporter gene assay relative to vehicle-treated control
[20] = target: T1, Oxysterols receptor LXR-beta (Mus musculus); test: Agonist activity at LXRbeta in mouse BV2 cells assessed as upregulation of apoE protein expression at 0.1 uM after 48 hrs by Western blot analysis relative to vehicle-treated control; conditions: BV-2
HepG2 [21] = test: Induction of cytoplasmic lipid accumulation in human HepG2 cells at 10 uM after 4 days by oil red O staining-based light microscopic analysis; conditions: hepg2, 96 h

Nc1ccc(C(=O)/C=C/c2ccc(F)cc2)c(O)c1
fold change (FC) [1]: 1.36

CC(C)c1ccc(-c2cc(=O)c3ccc(O)cc3o2)cc1
fold change (FC) [1]: 1.22

O=S(=O)(c1ccccc1)N(CC(F)(F)F)c1ccc(C(O)(C(F)(F)F)C(F)(F)F)cc1 [T091317]
Activity (HepG2 [2]): 175%
Activity (HepG2 [3]): Toxic

O=c1cc(-c2cccc(Oc3ccccc3)c2)oc2cc(O)ccc12
fold change (FC) [1]: 1.17

Cc1ccc(-c2cc(=O)c3ccc(N)cc3o2)o1
fold change (FC) [1]: 1.3

Cc1ccc(-c2cc(=O)c3ccc(N)cc3o2)s1
fold change (FC) [1]: 1.47

Cc1ccc(/C=C/C(=O)c2ccc(N(C)C)cc2O)o1
fold change (FC) [1]: 1.02

Nc1ccc(C(=O)/C=C/c2cc(C(F)(F)F)cc(C(F)(F)F)c2)c(O)c1
fold change (FC) [1]: 1.12

O=c1cc(-c2csc3ccccc23)oc2cc(O)ccc12
fold change (FC) [1]: 1.44

Nc1ccc(C(=O)/C=C/c2ccc3ccccc3c2)c(O)c1
Activity [4]: 37%
Activity (HepG2 [2]): -21%
fold change (FC) [5]: 1.11
Activity [6]: Dose-dependent effect
Activity (HEK293): Non-toxic
Activity [7]: 44%
Activity (RAW264.7): Non-toxic
fold change (FC) [1]: 2.64
Activity [8]: Dose-dependent effect
fold change (FC) [9]: 1.06
fold change (FC) [10]: 1.4
Activity [11]: Dose-dependent effect
Activity (HepG2 [12]): 19%
Activity [13]: Active
Activity (BV-2): Non-toxic
Activity [14]: Dose-dependent effect
fold change (FC) [15]: 1.7
Activity [16]: Active
fold change (FC) [17]: 1.38
Activity (HepG2 [18]): Non-toxic
fold change (FC) [19]: 2.22
fold change (FC) [20]: 1.4
Activity (HepG2 [21]): Toxic

COc1ccc(-c2ccc(/C=C/C(=O)c3ccc(N)cc3O)s2)cc1
fold change (FC) [1]: 1.09

Nc1ccc(C(=O)/C=C/c2ccc3c(c2)OCO3)c(O)c1
Activity [4]: 40%
fold change (FC) [1]: 1.92

COc1cccc(/C=C/C(=O)c2ccc(N)cc2O)c1
Activity [4]: 33%
fold change (FC) [1]: 2.09

Cc1ccc(/C=C/C(=O)c2ccc(N)cc2O)s1
Activity [4]: 37%
fold change (FC) [1]: 2

CCc1ccc(/C=C/C(=O)c2ccc(N)cc2O)cc1
fold change (FC) [1]: 1.73

Nc1ccc(C(=O)/C=C/c2cccc(Oc3ccccc3)c2)c(O)c1
fold change (FC) [1]: 1.76

CC1=C(/C=C/C(C)=C\C=C\C(C)=C\C(=O)O)C(C)(C)CCC1
fold change (FC) [1]: 2.18

COc1cc(N(C)C)ccc1C(=O)/C=C/c1ccc(C)o1
fold change (FC) [1]: 1.57

Cc1ccc(CCC(=O)c2ccc(N)cc2O)o1
fold change (FC) [1]: 1.9

CCOc1ccc(-c2cc(=O)c3ccc(N)cc3o2)cc1
fold change (FC) [1]: 1.37

COc1ccc(-c2ccc(-c3cc(=O)c4ccc(O)cc4o3)s2)cc1
fold change (FC) [1]: 1.03

CC(C)c1ccc(/C=C/C(=O)c2ccc(N)cc2O)cc1
fold change (FC) [1]: 2.05

O=c1cc(-c2ccc(-c3ccccc3)cc2)oc2cc(O)ccc12
fold change (FC) [1]: 1.15

COc1cc(N)ccc1C(=O)/C=C/c1ccc2ccccc2c1
fold change (FC) [1]: 0.88

Nc1ccc(C(=O)/C=C/c2ccc(Cl)cc2)c(O)c1
fold change (FC) [1]: 1.16

CN(CCOc1ccc(CC2SC(=O)NC2=O)cc1)c1ccccn1 (centres undefined)
fold change (FC) [1]: 1.19

CCOc1ccc(/C=C/C(=O)c2ccc(N)cc2O)cc1OC
Activity [4]: 23%
fold change (FC) [1]: 1.86

O=c1cc(-c2ccc3ccccc3n2)oc2cc(O)ccc12
fold change (FC) [1]: 1.36

COc1cc(N)ccc1C(=O)/C=C/c1ccc(C)o1
fold change (FC) [1]: 1.2

CSc1ccc(/C=C/C(=O)c2ccc(N)cc2O)cc1
fold change (FC) [1]: 1.26

CCOc1ccc(/C=C/C(=O)c2ccc(N)cc2O)cc1
Activity [4]: 16%
fold change (FC) [1]: 1.92

CC(C)OC(=O)C(C)(C)Oc1ccc(C(=O)c2ccc(Cl)cc2)cc1
fold change (FC) [1]: 1.1

Nc1ccc(C(=O)/C=C/c2c[nH]c3ccccc23)c(O)c1
Activity [4]: 39%
fold change (FC) [1]: 1.76

Nc1ccc(C(=O)CCc2ccc3ccccc3c2)c(O)c1
fold change (FC) [1]: 1.34

COc1cc(/C=C/C(=O)c2ccc(N)cc2O)cc(OC)c1OC
fold change (FC) [1]: 0.98

O=C(O)Cc1cccc(OCCCN(Cc2cccc(C(F)(F)F)c2Cl)CC(c2ccccc2)c2ccccc2)c1
Activity [4]: 55%
Activity (HepG2 [2]): 43%
fold change (FC) [5]: 2.38
fold change (FC) [1]: 1.83
fold change (FC) [9]: 1.53
Activity (HepG2 [12]): 242%
fold change (FC) [17]: 1.42
Activity (HepG2 [3]): Toxic
fold change (FC) [19]: 1.86

O=C(O)c1ccc(-c2cc(=O)c3ccc(O)cc3o2)cc1
Activity [4]: 18%
fold change (FC) [1]: 1.66

Nc1ccc(C(=O)/C=C/c2ccc(-c3ccccc3)cc2)c(O)c1
fold change (FC) [1]: 1.55

COc1cc(N(C)C)ccc1C(=O)/C=C/c1ccc2ccccc2c1
fold change (FC) [1]: 1.35

Nc1ccc(C(=O)/C=C/c2csc3ccccc23)c(O)c1
Activity [4]: 42%
fold change (FC) [1]: 2.31

COc1cc(N)ccc1C(=O)/C=C/c1ccc(C)s1
fold change (FC) [1]: 1.5

CC(=O)Nc1ccc(C(=O)/C=C/c2ccc(C)s2)c(O)c1
fold change (FC) [1]: 1.08

O=c1cc(-c2ccc3ccccc3c2)oc2cc(O)ccc12
Activity [4]: 7%
fold change (FC) [1]: 1.57

CCOc1ccc(/C=C/C(=O)c2ccc(N)cc2OC)cc1
fold change (FC) [1]: 1.06
